Consider 34 molecules from patent publication US10047096B2, “Substituted pyridobenzodiazepinone-derivatives and use thereof” (Bayer Pharma Aktiengesellschaft, priority 2014, dated 2018).

In general, IC50 refers to the point on the concentration scale where inhibition reaches its midpoint. A high value points to weaker potency in that assay.

human PDGFRβ, sequence (P09619 561-1106): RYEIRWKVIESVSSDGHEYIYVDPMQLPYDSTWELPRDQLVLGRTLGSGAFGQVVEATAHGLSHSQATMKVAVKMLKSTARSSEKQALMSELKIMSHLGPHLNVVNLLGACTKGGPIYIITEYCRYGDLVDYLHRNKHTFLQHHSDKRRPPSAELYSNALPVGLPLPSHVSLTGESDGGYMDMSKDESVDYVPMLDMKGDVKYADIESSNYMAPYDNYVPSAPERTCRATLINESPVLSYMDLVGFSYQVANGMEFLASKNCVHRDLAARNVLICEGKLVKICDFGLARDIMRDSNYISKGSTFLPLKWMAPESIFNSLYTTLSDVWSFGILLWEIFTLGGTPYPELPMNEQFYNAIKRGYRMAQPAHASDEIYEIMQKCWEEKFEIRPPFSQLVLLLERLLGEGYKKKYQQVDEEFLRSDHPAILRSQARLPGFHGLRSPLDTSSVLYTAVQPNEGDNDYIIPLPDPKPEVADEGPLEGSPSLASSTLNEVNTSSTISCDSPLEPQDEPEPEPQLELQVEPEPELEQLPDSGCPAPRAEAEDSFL

The target in the assay is human PDGFRβ (Homo sapiens (Human), UniProt P09619). In words: PDGFRβ kinase assay (PDGFRβ-HTRF). Type of assay: biochemical. Conditions: 10 μM ATP; some mean values from multiple determinations. How it is done:
The PDGFRβ-inhibitory activity of the inventive compounds was determined in the PDGFRβ-HTRF assay described hereinafter.
The kinase used was a recombinant fusion protein composed of N-terminal GST and a C-terminal fragment of human PDGFRβ (amino acids R561-L1106), expressed in baculovirus-infected insect cells (Sf9) and purified by affinity chromatography (from ProQinase GmbH, Freiburg, Germany). The substrate used for the kinase reaction was biotinylated poly-Glu,Tyr (4:1) copolymer (from Cisbio Bioassays, Codolet, France).
For the assay, 50 nl of a 100-fold concentrated solution of the test substance in DMSO was pipetted into a black “low-volume 384 well” microtitre plate (from Greiner Bio-One, Frickenhausen, Germany), then 2 μl of a solution of PDGFRβ in assay buffer [50 mM HEPES/NaOH pH 7.5, 10 mM MgCl2, 2.5 mM dithiothreitol, 0.01% (v/v) Triton-X100 (from Sigma)] was added and the mixture was incubated for 15 min, in order to enable preliminary binding of the substance to the enzyme before the kinase reaction. […] The resulting mixture was incubated at 22° C. for 1 h to allow formation of a complex of the biotinylated phosphorylated substrate and the detection reagents.
Subsequently, the amount of the phosphorylated substrate was evaluated by measuring the resonance energy transfer from the PT66-Eu chelate to the streptavidin-XL665. […] The IC50 values were calculated by a 4-parameter fit.
For orientation: In TR-FRET formats the signal depends on donor and acceptor labels being close together.
On to `Cc1ccc(O)cc1Nc1ccnc2c1C(=O)Nc1cc(CNC3CCOCC3)ccc1N2` [Example 136], for which the IC50 turned out to be 2.05 nM.
Molecule `Cc1cc(F)c(Nc2ccnc3c2C(=O)Nc2cc(CN4CCNCC4)ccc2N3)cc1O` [Example 197, 4-[(2-Fluoro-5-hydroxy-4-methylphenyl)amino]-8-(piperazin-1-ylmethyl)-6,11-dihydro-5H-pyrido[2,3-b][1,5]benzodiazepin-5-one] showed a half-maximal inhibitory concentration (IC50) of 0.861 nM.
With `Cc1cc(F)c(Nc2ccnc3c2C(=O)Nc2cc(CN(C)CCCO)ccc2N3)cc1O` [Example 221, 4-[(2-Fluoro-5-hydroxy-4-methylphenyl)amino]-8-{[(3-hydroxypropyl)(methyl)amino]methyl}-6,11-dihydro-5H-pyrido[2,3-b][1,5]benzodiazepin-5-one], the midpoint of inhibition, the IC50, lay at 1.74 nM.
As for `Cc1ccc(O)cc1Nc1ccnc2c1C(=O)Nc1cc(CNCCc3ccncc3)ccc1N2` [Example 123], the IC50 stood at 7.14 nM.
As to `Cc1ccc(O)cc1Nc1ccnc2c1C(=O)Nc1cc(CNCc3cccc(Cl)c3)ccc1N2` [Example 15, 8-{[(3-Chlorobenzyl)amino]methyl}-4-[(5-hydroxy-2-methylphenyl)amino]-6,11-dihydro-5H-pyrido[2,3-b][1,5]benzodiazepin-5-one], 5.77 nM corresponded to half-maximal inhibition (IC50).
In the case of `Cc1ccc(O)cc1Nc1ccnc2c1C(=O)Nc1cc(CNC3CCCCC3C)ccc1N2` (stereo not shown) [Example 124], the IC50 is 3.02 nM.
On to `COCCOCCCNCc1ccc2c(c1)NC(=O)c1c(Nc3cc(O)ccc3C)ccnc1N2` [Example 116], for which half-maximal inhibition (IC50) was put at 4.75 nM.
`Cc1ccc(O)cc1Nc1ccnc2c1C(=O)Nc1cc(CN3CCN(C)CC3)ccc1N2` [Example 43, 4-[(5-Hydroxy-2-methylphenyl)amino]-8-[(4-methylpiperazin-1-yl)methyl]-6,11-dihydro-5H-pyrido[2,3-b][1,5]benzodiazepin-5-one] registered an IC50 of 2.3 nM.
`Cc1cc(F)c(Nc2ccnc3c2C(=O)Nc2cc(CN4CCC(C)C(O)C4)ccc2N3)cc1O` (stereo not shown) [Example 59, 4-[(2-Fluoro-5-hydroxy-4-methylphenyl)amino]-8-[(3-hydroxy-4-methylpiperidin-1-yl)methyl]-6,11-dihydro-5H-pyrido[2,3-b][1,5]benzodiazepin-5-one] yielded an IC50 of 1.82 nM.
`Cc1cc(F)c(Nc2ccnc3c2C(=O)Nc2cc(CNC4CCCC4)ccc2N3)cc1O` [Example 226, 8-[(Cyclopentylamino)methyl]-4-[(2-fluoro-5-hydroxy-4-methylphenyl)amino]-6,11-dihydro-5H-pyrido[2,3-b][1,5]benzodiazepin-5-one] returned an IC50 of 1.09 nM.
As for `Cc1ccc(O)cc1Nc1ccnc2c1C(=O)Nc1cc(CNCc3ccc(Cl)nc3)ccc1N2` [Example 95], the figure is 1.95 nM.
Molecule `Cc1cc(F)c(Nc2ccnc3c2C(=O)Nc2cc(C(=O)NC4CCCC(O)C4)ccc2N3)cc1O` (stereo not shown) [Example 81, 4-[(2-Fluoro-5-hydroxy-4-methylphenyl)amino]-N-(3-hydroxycyclohexyl)-5-oxo-6,11-dihydro-5H-pyrido[2,3-b][1,5]benzodiazepine-8-carboxamide] returned an IC50 of 1.31 nM.
Turning to `Cc1cc(F)c(Nc2ccnc3c2C(=O)Nc2cc(CN[C@@H](CO)C(N)=O)ccc2N3)cc1O` [Example 173, N^2-({4-[(2-Fluoro-5-hydroxy-4-methylphenyl)amino]-5-oxo-6,11-dihydro-5H-pyrido[2,3-b][1,5]benzodiazepin-8-yl}methyl)-L-serinamide], the IC50 stood at 4.41 nM.
Take `Cc1ccc(O)cc1Nc1ccnc2c1C(=O)Nc1cc(CNCCN3CCOCC3)ccc1N2` [Example 18, 4-[(5-Hydroxy-2-methylphenyl)amino]-8-({[2-(morpholin-4-yl)ethyl]amino}methyl)-6,11-dihydro-5H-pyrido[2,3-b][1,5]benzodiazepin-5-one]: the IC50 amounted to 5.19 nM.
`Cc1cc(F)c(Nc2ccnc3c2C(=O)Nc2cc(CN4CC(=O)N(C(C)C)C(C)(C)C4)ccc2N3)cc1O` [Example 196, 4-[(2-Fluoro-5-hydroxy-4-methylphenyl)amino]-8-[(4-isopropyl-3,3-dimethyl-5-oxopiperazin-1-yl)methyl]-6,11-dihydro-5H-pyrido[2,3-b][1,5]benzodiazepin-5-one] gave an IC50 of 9.38 nM.
Consider `Cc1ccc(Nc2ccnc3c2C(=O)Nc2cc(C#N)ccc2N3)cc1O` [Example 3, 4-[(3-Hydroxy-4-methylphenyl)amino]-5-oxo-6,11-dihydro-5H-pyrido[2,3-b][1,5]benzodiazepine-8-carbonitrile], for which the IC50 stood at 3.82 nM.
Turning to `Cc1cc(F)c(Nc2ccnc3c2C(=O)Nc2cc(CN4CCC(N(C)C)CC4)ccc2N3)cc1O` [Example 211, 8-{[4-(Dimethylamino)piperidin-1-yl]methyl}-4-[(2-fluoro-5-hydroxy-4-methylphenyl)amino]-6,11-dihydro-5H-pyrido[2,3-b][1,5]benzodiazepin-5-one], the IC50 came out at 1.94 nM.
As for `CCOC(=O)Nc1ccc(Nc2ccnc3c2C(=O)Nc2cc(C#N)ccc2N3)cc1O` [Example 4, Ethyl {4-[(8-cyano-5-oxo-6,11-dihydro-5H-pyrido[2,3-b][1,5]benzodiazepin-4-yl)amino]-2-hydroxyphenyl}carbamate], the IC50 is 352 nM.
Take `Cc1ccc(O)cc1Nc1ccnc2c1C(=O)Nc1cc(CN[C@H](C)C3CCCCC3)ccc1N2` [Example 102]: the IC50 came out at 1.57 nM.
In turn, `CCN(Cc1ccc2c(c1)NC(=O)c1c(Nc3cc(O)c(C)cc3F)ccnc1N2)CC(C)O` (racemic) [Example 204, rac-8-{[Ethyl(2-hydroxypropyl)amino]methyl}-4-[(2-fluoro-5-hydroxy-4-methylphenyl)amino]-6,11-dihydro-5H-pyrido[2,3-b][1,5]benzodiazepin-5-one] returned an IC50 of 1.71 nM.
`Cc1cc(F)c(Nc2ccnc3c2C(=O)Nc2cc(CNC(C)C)ccc2N3)cc1O` [Example 48, 4-[(2-Fluoro-5-hydroxy-4-methylphenyl)amino]-8-[(isopropylamino)methyl]-6,11-dihydro-5H-pyrido[2,3-b][1,5]benzodiazepin-5-one] yielded an IC50 of 1.01 nM.
`Cc1cc(F)c(Nc2ccnc3c2C(=O)Nc2cc(CN4CCC[C@@H](N)C4)ccc2N3)cc1O` [Example 212, 8-{[(3R)-3-Aminopiperidin-1-yl]methyl}-4-[(2-fluoro-5-hydroxy-4-methylphenyl)amino]-6,11-dihydro-5H-pyrido[2,3-b][1,5]benzodiazepin-5-one] returned an IC50 of 0.829 nM.
`Cc1ccc(O)cc1Nc1ccnc2c1C(=O)Nc1cc(CNCC3CCC(=O)N3C)ccc1N2` (stereo not shown) [Example 137]: the IC50 is 1.68 nM.
On to `Cc1ccc(O)cc1Nc1ccnc2c1C(=O)Nc1cc(CNC3(C)CCS(=O)(=O)C3)ccc1N2` (stereo not shown) [Example 98], for which the IC50 was determined as 5.17 nM.
As to `Cc1ccc(O)cc1Nc1ccnc2c1C(=O)Nc1cc(CNC3CCCNC3=O)ccc1N2` (stereo not shown) [Example 139], the IC50 stood at 3.58 nM.
Molecule `Cc1cc(F)c(Nc2ccnc3c2C(=O)Nc2cc(C(=O)N4CCC(O)CC4)ccc2N3)cc1O` [Example 178, 4-[(2-Fluoro-5-hydroxy-4-methylphenyl)amino]-8-[(4-hydroxypiperidin-1-yl)carbonyl]-6,11-dihydro-5H-pyrido[2,3-b][1,5]benzodiazepin-5-one] showed a 50% inhibitory concentration (IC50) of 14.8 nM.
Molecule `N#Cc1ccc2c(c1)NC(=O)c1c(Nc3cc(O)c(Cl)cc3Cl)ccnc1N2` [Example 10, 4-[(2,4-Dichloro-5-hydroxyphenyl)amino]-5-oxo-6,11-dihydro-5H-pyrido[2,3-b][1,5]benzodiazepine-8-carbonitrile] showed an IC50 of 65.9 nM.
Turning to `Cc1cc(F)c(Nc2ccnc3c2C(=O)Nc2cc(CN4CC[C@@H](N(C)C)C4)ccc2N3)cc1O` [Example 217, 8-{[(3R)-3-(Dimethylamino)pyrrolidin-1-yl]methyl}-4-[(2-fluoro-5-hydroxy-4-methylphenyl)amino]-6,11-dihydro-5H-pyrido[2,3-b][1,5]benzodiazepin-5-one], the IC50 stood at 3.39 nM.
For the molecule `Cc1ccc(O)cc1Nc1ccnc2c1C(=O)Nc1cc(CNCc3cccc(F)c3F)ccc1N2` [Example 94], the IC50 is 3.52 nM.
As for `Cc1ccc(O)cc1Nc1ccnc2c1C(=O)Nc1cc(CNCCN3CCC(C)CC3)ccc1N2` [Example 110], the figure is 3.29 nM.
In turn, `Cc1cc(F)c(Nc2ccnc3c2C(=O)Nc2cc(CN4CCCC(OCC(F)(F)F)C4)ccc2N3)cc1O` (racemic) [Example 89, rac-4-[(2-Fluoro-5-hydroxy-4-methylphenyl)amino]-8-{[3-(2,2,2-trifluoroethoxy)piperidin-1-yl]methyl}-6,11-dihydro-5H-pyrido[2,3-b][1,5]benzodiazepin-5-one] yielded an IC50 of 3.51 nM.
As for `Cc1ccc(O)cc1Nc1ccnc2c1C(=O)Nc1cc(CNC(C)CN(C)C)ccc1N2` (stereo not shown) [Example 122], half-maximal inhibition (IC50) was put at 3.24 nM.
`N#Cc1ccc2c(c1)NC(=O)c1c(Nc3cc(O)ccc3F)ccnc1N2` [Example 13, 4-[(2-Fluoro-5-hydroxyphenyl)amino]-5-oxo-6,11-dihydro-5H-pyrido[2,3-b][1,5]benzodiazepine-8-carbonitrile] displayed an IC50 of 21.9 nM.
In turn, `Cc1ccc(O)cc1Nc1ccnc2c1C(=O)Nc1cc(C(=O)NCc3cccc(Cl)c3)ccc1N2` [Example 225, N-(3-Chlorobenzyl)-4-[(5-hydroxy-2-methylphenyl)amino]-5-oxo-6,11-dihydro-5H-pyrido[2,3-b][1,5]benzodiazepine-8-carboxamide] came in with an IC50 of 14.1 nM.
